# Experimental data: US4921960A, “Quinoline thioethers” (priority 1987, dated 1990)
# Experiments:
# benzodiazepine receptors = test: In vitro binding, 3H-Diazepam displacement on rat brain membrane preparation; conditions: 2 nM 3H-Diazepam, rat cortex membranes; for Displacement of 3H-Diazepam from its receptor: 1 hr at 0-4 °C; for IC50 value: both drugs compared
# Protocol: The in vitro binding of compound A in comparison to that of chlordiazepoxide was measured on rat brain membrane preparation. Male CFY rat cortex was homogenized in 0.32M sucrose using glass homogenizer with teflon pestle. Nucleus was spun down at 1000 g for 15 min. The supernatant was centrifuged at 40,000 g for 15 min. The pellet was homogenized in 5 mM TRIS-citrate buffer pH 7.1 by a Polytron P10 and it was lyzed for 15 min. at 0° C. After centrifugation at 40,000 g for 15 min. the pellet was taken up in 50 mM TRIS-citrate buffer pH 7.1 and kept overnight at -20° C. After thawing and centrifugation (40,000 g for 15 min.) the pellet was washed in 50 mM TRIS-citrate buffer pH 7.1 three times by centrifugation. The final pellet was taken up in the same buffer in 1:30 volume. Ligand: 2 nM ^3 H-Diazepam (sp. act. 86 Ci/mmol).
# Incubation: 1 hr at 0°-4° C. in 50 mM TRIS-citrate buffer ph 7.1
# Final protein concentration: ca. 0.5 mg/ml.
# The binding was stopped by dilution with cold buffer and rapid filtration on GF/B Whatman filter paper.
# For the displacement we used six different concentrations of drugs, run with 3 parallels. Experiments were repeated two times. Compound A was dissolved in cc. acetic acid and distilled water then the 10^-3 M solution was further diluted with incubation buffer. Blank solution was prepared in the same way without containing the drug. Chlordiazepoxide was dissolved in the incubation buffer.
# Male CFY rats = test: "Conflict" test: water consumption of food-deprived rats without punishment and in punished situation (anti-anxiety versus sedative effect); type: in vivo, rat; conditions: for Sedative dose (numerator of ratio): as printed in b54 without unit, see Tables I and III; for Water consumption (ml) punished situation / Water consumption (ml) without punishment: 30 min prior; for Ratio between the sedative and anxiolytic dose: Tables I and III; for Anxiolytic effect in presence of RO-15-1788 (selective benzodiazepine receptor antagonist): Tables II and IV
# Protocol: The essential strategy for measuring the anti-anxiety effecct of a drug is to check its activity in a conflict situation. We elicit a rewarded response, then suppress that response by punishing it when it occurs and the anti-anxiety effect is measured by the drug-induced increase in punished responding, whereas the sedative effect is measured by the drug-induced decrease of unpunished responding.
# This means that when we circuit the drinking tube and the grid floor of the cage and the rat is regularly shocked by trying to drink, the very hungry animal, which cannot eat without drinking, is maximally forced to overcome the hindrance. This is a sensitive test to check the anti-anxiety effect of a compound.
# Male CFY rats, weighing 230-250 g, fed with standard food pellets and supplied with tap water ad libitum, were kept under controlled standard environmental conditions (room temperature between 22°-24° C.) in groups of ten for two weeks until used in the experiment. The rats kept in single cages during starvation were deprived of food for 96 hours and supplied with tap water ad libitum before the experiment.
# Another aspect of the selection of the animals for the experiment was their visible physical fitness and normal activity after starvation.
# A clear Plexiglass box (39×27×12 cm) with a stainless-steel grid floor supplied with a tray for the food pellets and with a drinking tube was used for the experiment. The grid floor, the drinking tube and an electric stimulator (Grass S48) were connected and electric shocks in this circuit were delivered for 10 s duration with 20 s intervals. The parameters of the current (100 V; 25 ohm; 7.5 ms; 5 Hz) were empirically selected using those electric shocks which inhibited the water consumption of the very hungry rats to one third of the control (unpunished) level.
# The rats spend one hour in the apparatus after 96 hours of food deprivation.
# The drugs were administered parenterally in doses of 0.5 ml/100 g body weight. We refrained from the oral administration of the compounds because of the long term food deprivation.
# The Student t-test was used for statistical analysis. The anxiolytic effect was established in punished animals and the sedative effect in unpunished rats.
# [1] = Acute toxicity, oral LD50; conditions: rat, in vivo, CFY rats, deaths within 48 h, Litchfield and Wilcoxon
# Protocol: Acute toxicity was assessed on CFY rats (100-160 g). Groups of 10 rats were used. Compound A was administered orally (in volume of 10 ml/kg). The animals starved for 16 h before the experiment. Each dose was administered to a group of animals equally subdivided into males and females. Deaths occurring within 48 h were considered. LD50 values were calculated on the basis of the graphical method of Litchfield and Wilcoxon.
# [2] = tested on: pentametazol induced convulsions in rats; test: Pentametazol induced convulsions; type: in vivo, rat; conditions: for Deaths of pretreated animals / Effect on pentametazol convulsions: 10 mg/kg prior to 120 mg/kg s.c. pentametazol
# [3] = tested on: picrotoxin induced convulsions in rats; type: in vivo, rat
# [4] = tested on: strychnine induced convulsions in rats; test: Strychnine induced lethal convulsions; type: in vivo, rat
# [5] = tested on: electroshock-induced convulsions in rats; test: Electroshock-induced lethal convulsions; type: in vivo, rat
# [6] = chlordiazepoxide 0.05 mg/kg s.c.
# [7] = chlordiazepoxide 0.1 mg/kg s.c.
# [8] = chlordiazepoxide 0.25 mg/kg s.c.
# [9] = chlordiazepoxide 0.5 mg/kg s.c.
# [10] = chlordiazepoxide 2.5 mg/kg s.c.
# [11] = pretreatment 200 mg/kg, 120 mg/kg s.c. pentametazol
# [12] = up to the oral dose of 200 mg/kg, rats
compound,measurement,setting,value
CNC1=Nc2ccc(Cl)cc2C(c2ccccc2)=[N+]([O-])C1 [chlordiazepoxide],Displacement of 3H-Diazepam from its receptor,benzodiazepine receptors,concentration dependent manner
same,IC50 value,benzodiazepine receptors,in the same range of concentration
same,Water consumption (ml) in punished situation,Male CFY rats; Table II: chlordiazepoxide 0.1 mg/kg s.c. + RO 15-1788 5 mg/kg i.p.,4.1 ± 0.59 mL
same,Water consumption (ml) in punished situation,Male CFY rats; Table II: chlordiazepoxide 0.1 mg/kg s.c. + RO 15-1788 10 mg/kg i.p.,3.9 ± 0.43 mL
same,Water consumption (ml) in punished situation,Male CFY rats; Table II: chlordiazepoxide 0.1 mg/kg s.c. + RO 15-1788 20 mg/kg i.p.,2.8 ± 0.49 mL
same,Water consumption (ml) in punished situation,"Male CFY rats; Table II: chlordiazepoxide 0.1 mg/kg s.c., RO 15-1788 none",4.1 ± 0.31 mL
same,Sedative dose (numerator of ratio),Male CFY rats,10
same,Water consumption (ml) punished situation,Male CFY rats; [6],3.5 ± 0.47 mL
same,Water consumption (ml) without punishment,Male CFY rats; [6],5.1 ± 0.56 mL
same,Water consumption (ml) punished situation,Male CFY rats; [7],4.1 ± 0.31 mL
same,Water consumption (ml) without punishment,Male CFY rats; [7],5.8 ± 0.42 mL
same,Water consumption (ml) punished situation,Male CFY rats; [8],3.5 ± 0.62 mL
same,Water consumption (ml) without punishment,Male CFY rats; [8],6.2 ± 0.37 mL
same,Water consumption (ml) punished situation,Male CFY rats; [9],3.1 ± 0.54 mL
same,Water consumption (ml) without punishment,Male CFY rats; [9],7.4 ± 0.77 mL
same,Water consumption (ml) punished situation,Male CFY rats; chlordiazepoxide 1 mg/kg s.c.,2.7 ± 0.58 mL
same,Water consumption (ml) without punishment,Male CFY rats; chlordiazepoxide 1 mg/kg s.c.,5.4 ± 0.68 mL
same,Water consumption (ml) punished situation,Male CFY rats; [10],4.1 ± 0.39 mL
same,Water consumption (ml) without punishment,Male CFY rats; [10],5.2 ± 0.72 mL
same,Water consumption (ml) punished situation,Male CFY rats; chlordiazepoxide 5 mg/kg s.c.,2.5 ± 0.31 mL
same,Water consumption (ml) without punishment,Male CFY rats; chlordiazepoxide 5 mg/kg s.c.,5.4 ± 0.62 mL
same,Water consumption (ml) punished situation,Male CFY rats; chlordiazepoxide 10 mg/kg s.c.,1.6 ± 0.26 mL
same,Water consumption (ml) without punishment,Male CFY rats; chlordiazepoxide 10 mg/kg s.c.,1.8 ± 0.30 mL
same,Ratio between the sedative and anxiolytic dose,Male CFY rats; conflict test,100
same,Anxiolytic effect in presence of RO-15-1788 (selective benzodiazepine receptor antagonist),Male CFY rats; conflict test,antagonized
same,Sedative dose range,"Male CFY rats; subcutaneous, conflict test, unpunished rats",10 mg/kg
"CCSc1c(N)cnc2cc(Cl)ccc12.Cl [compound A, 3-amino-4-ethylthio-7-chloro-quinoline-hydrochloride]",LD50 at 48 h,[1],465 mg/kg
same,Displacement of 3H-Diazepam from its receptor,benzodiazepine receptors,concentration dependent manner
same,IC50 value,benzodiazepine receptors,in the same range of concentration
same,Influence on the anticonvulsant effect of diazepam (10 mg/kg),[2]; compound A 200 mg/kg,no influence
same,Severity of the pentametazol convulsions,[2]; [11],did not change
same,Survival of pretreated animals,[2]; [11],none of the pretreated animals survived
same,Protection against pentametazol induced convulsions,[2]; [12],ineffective
same,Water consumption (ml) in punished situation,Male CFY rats; Table IV: compound A 5 μg/kg s.c. + RO 15-1788 10 mg/kg i.p.,3.1 ± 0.69 mL
same,Water consumption (ml) in punished situation,Male CFY rats; Table IV: compound A 5 μg/kg s.c. + RO 15-1788 20 mg/kg i.p.,2.4 ± 0.39 mL
same,Water consumption (ml) in punished situation,"Male CFY rats; Table IV: compound A 5 μg/kg s.c., RO 15-1788 none",4.2 ± 0.37 mL
same,Sedative dose (numerator of ratio),Male CFY rats,2.5
same,Water consumption (ml) punished situation,Male CFY rats; compound A 0.25 mg/kg s.c.,3.0 ± 0.27 mL
same,Water consumption (ml) without punishment,Male CFY rats; compound A 0.25 mg/kg s.c.,7.7 ± 0.45 mL
same,Water consumption (ml) punished situation,Male CFY rats; compound A 2.5 mg/kg s.c.,1.9 ± 0.35 mL
same,Water consumption (ml) without punishment,Male CFY rats; compound A 2.5 mg/kg s.c.,4.9 ± 0.91 mL
same,Water consumption (ml) punished situation,Male CFY rats; compound A 2.5 γ/kg s.c.,2.2 ± 0.32 mL
same,Water consumption (ml) without punishment,Male CFY rats; compound A 2.5 γ/kg s.c.,6.3 ± 0.46 mL
same,Water consumption (ml) punished situation,Male CFY rats; compound A 5 γ/kg s.c.,3.8 ± 0.19 mL
same,Water consumption (ml) without punishment,Male CFY rats; compound A 5 γ/kg s.c.,6.4 ± 0.33 mL
same,Water consumption (ml) punished situation,Male CFY rats; compound A 25 γ/kg s.c.,3.7 ± 0.44 mL
same,Water consumption (ml) without punishment,Male CFY rats; compound A 25 γ/kg s.c.,7.9 ± 0.58 mL
same,Anti-anxiety potency relative to chlordiazepoxide,Male CFY rats; conflict test,about 20 times
same,Ratio between the sedative and anxiolytic dose,Male CFY rats; conflict test,500
same,Anxiolytic effect in presence of RO-15-1788 (selective benzodiazepine receptor antagonist),Male CFY rats; conflict test,antagonized
same,Influence on picrotoxin induced lethal convulsions,"[3]; pretreated rats, picrotoxin 10 mg/kg s.c.",remained unchanged
same,Protection against picrotoxin induced convulsions,[3]; [12],ineffective
same,Influence on strychnine induced lethal convulsions,"[4]; up to the 200 mg/kg dose level, strychnine 2.5 mg/kg s.c.",not influenced at all
same,Protection against strychnine induced convulsions,[4]; [12],ineffective
same,Animals died,"[5]; 200 mg/kg, electroshock-induced lethal convulsions",70%
same,Protection against electroshock-induced convulsions,[5]; [12],only slightly effective
CN1C(=O)CN=C(c2ccccc2)c2cc(Cl)ccc21 [diazepam],Deaths of pretreated animals,[2],none of the pretreated animals died
same,Effect on pentametazol convulsions,[2],mitigated the convulsions
same,Animals died,"[4]; 10 mg/kg, strychnine 2.5 mg/kg s.c.",80%
same,Rats whose life was saved,"[5]; electroshock-induced lethal convulsions, dose not given",80%
CCC1(c2ccccc2)C(=O)NC(=O)NC1=O [phenobarbital Na],Deaths of pretreated animals,[2],none of the pretreated animals died
same,Effect on pentametazol convulsions,[2],mitigated the convulsions
same,Animals died,"[3]; 50 mg/kg, picrotoxin 10 mg/kg s.c.",80%
same,Animals died,"[4]; 50 mg/kg, strychnine 2.5 mg/kg s.c.",40%
same,Protection against electrogenic convulsions,[5]; 30-50 mg/kg,completely protected
